Reference: ChEMBL document CHEMBL3259655, “Anthranilic acid derivatives as novel ligands for farnesoid X receptor (FXR)” (Bioorg Med Chem, 2014)
Values after ≈ are worked out from the molar mass of the structure shown. Active and inactive are the calls of the source. The calls are words filed in the database; no cut-off is given here.

Columns and labels:
[1] = target: T1, Bile acid receptor (Homo sapiens) (UniProt Q96RI1); experiment: Agonist activity at human FXR expressed in human HeLa cells assessed as transactivation at 3 uM after 24 hrs by luciferase reporter gene assay relative to GW4064; assay type: cell-based
T1 sequence (whole entry): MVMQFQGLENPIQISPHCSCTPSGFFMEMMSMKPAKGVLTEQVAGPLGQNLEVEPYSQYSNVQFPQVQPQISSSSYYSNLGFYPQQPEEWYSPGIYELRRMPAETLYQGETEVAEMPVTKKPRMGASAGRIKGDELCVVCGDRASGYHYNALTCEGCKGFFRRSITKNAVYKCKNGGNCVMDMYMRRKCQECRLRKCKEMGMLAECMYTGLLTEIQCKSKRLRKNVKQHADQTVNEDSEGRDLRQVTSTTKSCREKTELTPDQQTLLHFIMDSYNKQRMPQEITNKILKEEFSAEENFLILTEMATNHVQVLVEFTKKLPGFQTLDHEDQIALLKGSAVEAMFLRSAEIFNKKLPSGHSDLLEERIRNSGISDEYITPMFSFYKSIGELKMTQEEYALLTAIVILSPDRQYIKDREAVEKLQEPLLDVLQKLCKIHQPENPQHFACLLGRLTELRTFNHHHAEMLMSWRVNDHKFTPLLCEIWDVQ

HeLa [2] = experiment: Cytotoxicity against human HeLa cells at >10 uM after 48 hrs by WST-1 assay; assay type: cell-based
[3] = target: T1, Bile acid receptor (Homo sapiens); experiment: Agonist activity at human FXR expressed in human HeLa cells assessed as transactivation at 30 uM after 24 hrs by luciferase reporter gene assay relative to GW4064; assay type: cell-based
Bile acid receptor = target: T2, Bile acid receptor (Homo sapiens, UniProt Q96RI1); experiment: Agonist activity at human FXR expressed in human HeLa cells assessed as transactivation after 24 hrs by luciferase reporter gene assay; assay type: cell-based
T2 sequence (Q96RI1 whole entry): T1 sequence (whole entry)

[4] = target: T1, Bile acid receptor (Homo sapiens); experiment: Agonist activity at human FXR expressed in human HeLa cells assessed as transactivation after 24 hrs by luciferase reporter gene assay relative to GW4064; assay type: cell-based
[5] = target: T3, Prostaglandin G/H synthase 1 (Ovis aries) (UniProt P05979); experiment: Inhibition of ovine COX1 using arachidonic acid as substrate up to 10 uM preincubated for 5 mins followed by substrate addition measured after 5 mins
T3 sequence (whole entry): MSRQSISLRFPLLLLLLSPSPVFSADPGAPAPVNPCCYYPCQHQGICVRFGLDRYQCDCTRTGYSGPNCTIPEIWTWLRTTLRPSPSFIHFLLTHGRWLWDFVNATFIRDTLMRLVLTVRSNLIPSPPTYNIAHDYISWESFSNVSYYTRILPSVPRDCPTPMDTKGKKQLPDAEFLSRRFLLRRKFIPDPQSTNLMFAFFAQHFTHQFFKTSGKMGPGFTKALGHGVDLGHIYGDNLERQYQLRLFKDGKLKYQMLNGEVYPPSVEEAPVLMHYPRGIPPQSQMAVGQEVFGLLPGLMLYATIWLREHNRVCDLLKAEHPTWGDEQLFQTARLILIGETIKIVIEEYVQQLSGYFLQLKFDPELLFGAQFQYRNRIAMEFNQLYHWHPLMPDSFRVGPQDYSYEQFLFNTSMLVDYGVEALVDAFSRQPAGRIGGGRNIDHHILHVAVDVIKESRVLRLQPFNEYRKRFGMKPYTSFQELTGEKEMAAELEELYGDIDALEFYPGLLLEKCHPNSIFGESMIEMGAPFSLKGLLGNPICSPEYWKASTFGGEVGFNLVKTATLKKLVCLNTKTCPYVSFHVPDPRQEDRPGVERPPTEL

[6] = target: T4, Prostaglandin G/H synthase 2 (Homo sapiens) (UniProt P35354); experiment: Inhibition of recombinant human COX2 using arachidonic acid as substrate up to 10 uM preincubated for 5 mins followed by substrate addition measured after 5 mins
T4 sequence (whole entry): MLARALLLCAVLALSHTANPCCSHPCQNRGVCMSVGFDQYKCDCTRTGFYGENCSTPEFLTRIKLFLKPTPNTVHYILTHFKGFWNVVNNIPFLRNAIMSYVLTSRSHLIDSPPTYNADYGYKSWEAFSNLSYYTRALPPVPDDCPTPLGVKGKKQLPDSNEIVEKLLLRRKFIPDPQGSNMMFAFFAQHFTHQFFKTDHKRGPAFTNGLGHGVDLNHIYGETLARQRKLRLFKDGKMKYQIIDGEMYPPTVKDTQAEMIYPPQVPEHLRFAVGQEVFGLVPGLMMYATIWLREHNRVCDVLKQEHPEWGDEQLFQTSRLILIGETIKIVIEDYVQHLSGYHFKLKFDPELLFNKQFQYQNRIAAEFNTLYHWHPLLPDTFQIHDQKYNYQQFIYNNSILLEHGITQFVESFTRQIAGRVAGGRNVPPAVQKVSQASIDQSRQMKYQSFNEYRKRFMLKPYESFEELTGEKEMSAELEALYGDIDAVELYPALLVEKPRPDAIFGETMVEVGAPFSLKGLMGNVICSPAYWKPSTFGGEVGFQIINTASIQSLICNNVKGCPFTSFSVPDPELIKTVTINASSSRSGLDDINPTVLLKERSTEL

[7] = target: T5, Polyunsaturated fatty acid 5-lipoxygenase (Homo sapiens) (UniProt P09917); experiment: Inhibition of 5-LO in human polymorphonuclear leukocytes using arachidonic acid as substrate at 10 uM preincubated for 15 mins followed by substrate addition measured after 10 mins by HPLC analysis in presence of Ca2+-ionophore A23187; assay type: cell-based
T5 sequence (whole entry): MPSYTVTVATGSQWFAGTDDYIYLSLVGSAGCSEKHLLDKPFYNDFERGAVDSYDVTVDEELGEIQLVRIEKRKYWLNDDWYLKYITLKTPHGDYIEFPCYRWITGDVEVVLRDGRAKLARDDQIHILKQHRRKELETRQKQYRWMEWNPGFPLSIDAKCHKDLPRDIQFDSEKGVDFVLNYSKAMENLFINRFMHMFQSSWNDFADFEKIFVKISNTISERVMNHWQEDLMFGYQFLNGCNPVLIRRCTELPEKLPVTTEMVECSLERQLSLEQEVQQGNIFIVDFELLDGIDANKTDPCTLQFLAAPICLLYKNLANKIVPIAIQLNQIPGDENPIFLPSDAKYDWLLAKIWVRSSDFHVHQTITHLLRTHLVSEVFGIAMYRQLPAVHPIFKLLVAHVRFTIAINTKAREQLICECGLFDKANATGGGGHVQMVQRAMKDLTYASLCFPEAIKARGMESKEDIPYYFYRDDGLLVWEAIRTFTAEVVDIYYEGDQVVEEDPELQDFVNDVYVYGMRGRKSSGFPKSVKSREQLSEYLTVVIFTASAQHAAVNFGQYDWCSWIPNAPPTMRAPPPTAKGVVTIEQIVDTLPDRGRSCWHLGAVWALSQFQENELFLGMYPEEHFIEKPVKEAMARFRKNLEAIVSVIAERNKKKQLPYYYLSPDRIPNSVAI

[8] = target: T6, Prostaglandin E synthase (Homo sapiens) (UniProt O14684); experiment: Inhibition of mPGES1 mediated PGE2 production in IL-1beta stimulated human A549 cells at 10 uM by RP-HPLC analysis; assay type: cell-based
T6 sequence (whole entry): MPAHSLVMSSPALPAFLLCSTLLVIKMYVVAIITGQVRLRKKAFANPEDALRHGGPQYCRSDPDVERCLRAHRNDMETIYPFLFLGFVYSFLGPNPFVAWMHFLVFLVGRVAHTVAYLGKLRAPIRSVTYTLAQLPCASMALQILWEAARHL

HeLa [9] = experiment: Cytotoxicity against human HeLa cells at 60 uM after 48 hrs by WST-1 assay; assay type: cell-based
HepG2 [10] = experiment: Cytotoxicity against human HepG2 cells at 10 uM after 48 hrs by WST-1 assay relative to control; assay type: cell-based; conditions: hepg2, 48 h
HepG2 [11] = experiment: Cytotoxicity against human HepG2 cells at 30 uM after 48 hrs by WST-1 assay relative to control; assay type: cell-based; conditions: hepg2, 48 h
HepG2 [12] = experiment: Cytotoxicity against human HepG2 cells at 60 uM after 48 hrs by WST-1 assay relative to control; assay type: cell-based; conditions: hepg2, 48 h
HepG2 [13] = experiment: Cytotoxicity against human HepG2 cells at 100 uM after 48 hrs by WST-1 assay relative to control; assay type: cell-based; conditions: hepg2, 48 h
[14] = Aqueous solubility of the compound; assay type: physicochemical; conditions: water
[15] = Metabolic stability in Sprague-Dawley rat liver microsomes assessed as compound remaining at 10 uM after 15 mins by HPLC analysis; assay type: ADME; conditions: read-out: Stability
[16] = Metabolic stability in Sprague-Dawley rat liver microsomes assessed as compound remaining at 10 uM after 30 mins by HPLC analysis; assay type: ADME; conditions: read-out: Stability
[17] = Metabolic stability in Sprague-Dawley rat liver microsomes assessed as compound remaining at 10 uM after 60 mins by HPLC analysis; assay type: ADME; conditions: read-out: Stability

Row | SMILES | max activation [3] | EC50 (Bile acid receptor) [µM] | max activation [4] [%] | other results
1 | O=C(O)CCCNC(=O)c1ccccc1NC(=O)C(c1ccccc1)c1ccccc1 | – | – | – | max activation [1]: inactive; Activity (HeLa [2]): Toxic
2 | COc1ccc(C(=O)Nc2ccccc2C(=O)NCCCC(=O)O)cc1 | – | – | – | max activation [1]: inactive; Activity (HeLa [2]): Toxic
3 | O=C(O)CCCNC(=O)c1ccccc1NC(=O)c1cc([N+](=O)[O-])cc([N+](=O)[O-])c1 | inactive | – | – | –
4 | O=C(O)CCCNC(=O)c1ccccc1NC(=O)c1cccs1 | – | – | – | max activation [1]: inactive; Activity (HeLa [2]): Toxic
5 | O=C(O)c1ccc(CNC(=O)c2ccccc2NC(=O)c2ccc3ccccc3c2)cc1 | – | 1.3 | 10 | –
6 | O=C(O)Cc1ccc(NC(=O)c2ccccc2NC(=O)c2ccc3ccccc3c2)cc1 | – | 3.1 | 9.8 | –
7 | CN(CCCC(=O)O)C(=O)c1ccccc1NC(=O)c1ccc2ccccc2c1 | inactive | – | – | –
8 | O=C(O)CCCNCc1ccccc1NC(=O)c1ccc2ccccc2c1 | inactive | – | – | –
9 | O=C(O)c1ccc(NC(=O)c2ccccc2NC(=O)c2ccc3ccccc3c2)cc1 | – | 1 | 23 | –
10 | O=C(O)CCCNC(=O)c1ccccc1NC(=O)c1ccc(-c2ccccc2)cc1 | – | – | – | max activation [1]: inactive; Activity (HeLa [2]): Toxic
11 | O=C(O)CCCNC(=O)c1ccccc1NCc1ccc2ccccc2c1 | inactive | – | – | –
12 | O=C(O)CCCNC(=O)c1ccccc1NS(=O)(=O)c1ccc2ccccc2c1 | inactive | – | – | –
13 | CN(C(=O)c1ccc2ccccc2c1)c1ccccc1C(=O)NCCCC(=O)O | inactive | – | – | –
14 | CC(C)(C)c1ccc(C(=O)Nc2ccccc2C(=O)NCCCC(=O)O)cc1 | – | 2.5 | 19 | –
15 | COC(=O)CCCNC(=O)c1ccccc1NC(=O)c1ccc2ccccc2c1 | – | 7.1 | 19 | –
16 | O=C(O)c1cccc(NC(=O)c2ccccc2NC(=O)c2ccc3ccccc3c2)c1 | – | 1.5 | 37 | Activity (HeLa [9]): Non-toxic; Activity (HepG2 [10]): 93%; Activity (HepG2 [11]): 65%; Activity (HepG2 [12]): 50%; Activity (HepG2 [13]): 46%; solubility [14]: 0.0003 mg/mL (≈ 0.731 µM); remaining at 0.25 h, 10 µM [15]: 86%; remaining at 0.5 h, 10 µM [16]: 76%; remaining at 1 h, 10 µM [17]: 61%

Continued, in another order:

Row | max activation [3] | EC50 (Bile acid receptor) [µM] | max activation [4] [%] | SMILES | other results
17 | inactive | – | – | O=C(O)CCCNC(=O)c1ccccc1NC(=O)CCc1ccccc1 | –
18 | inactive | – | – | O=C(O)CCCNC(=O)c1ccccc1NC(=O)c1cccc2ccccc12 | –
19 | – | 4.4 | 10.4 | O=C(O)CCCCCNC(=O)c1ccccc1NC(=O)c1ccc2ccccc2c1 | –
20 | inactive | – | – | O=C(O)CCCNC(=O)c1ccccc1NC(=O)c1ccccc1-c1ccccc1 | –
21 | – | 5.8 | 28 | CCc1ccc(C(=O)Nc2ccccc2C(=O)NCCCC(=O)O)cc1 | –
22 | inactive | – | – | O=C(O)CCCNC(=O)c1ccccc1NC(=O)c1ccncc1 | –
23 | – | 8.55 | 37 | O=C(O)CCCNC(=O)c1ccccc1NC(=O)c1ccc2ccccc2c1 | inhibition [5]: inactive; inhibition [6]: inactive; inhibition [7]: inactive; inhibition [8]: inactive; Activity (HeLa [9]): Non-toxic; Activity (HepG2 [10]): 92%; Activity (HepG2 [11]): 90%; Activity (HepG2 [12]): 81%; Activity (HepG2 [13]): 84%; solubility [14]: 0.045 mg/mL (≈ 120 µM); remaining at 0.25 h, 10 µM [15]: 93%; remaining at 0.5 h, 10 µM [16]: 93%; remaining at 1 h, 10 µM [17]: 92%
24 | 11% | – | – | Cc1ccc(C(=O)Nc2ccccc2C(=O)NCCCC(=O)O)cc1 | –
25 | – | 0.72 | 12.4 | O=C(O)CCCNC(=O)c1ccccc1NC(=O)/C=C/c1ccccc1 | –
26 | inactive | – | – | O=C(O)CCCNC(=O)c1ccccc1NC(=O)CC(c1ccccc1)c1ccccc1 | –
27 | inactive | – | – | O=C(O)CCCNC(=O)c1ccccc1NC(=O)Cc1ccc2ccccc2c1 | –
28 | inactive | – | – | O=C(O)CCCNC(=O)c1ccccc1NC(=O)c1cccc(-c2ccccc2)c1 | –
29 | – | 8.3 | 11.4 | O=C(O)CCCCNC(=O)c1ccccc1NC(=O)c1ccc2ccccc2c1 | –
